This note sets out measurements from patent publication US20130344494A1, “MYH10 AS A NEW MARKER OF PATHOLOGIES RESULTING FROM RUNX1 INACTIVATION” (priority 2011, published 2013).

In experiment [1] the test system is CD41+ cells (MKs). Nature of the experiment: FRAP of actin-GFP turnover in the contractile ring of MKs. Type of experiment: cell-based. The conditions noted are these: Blebbistatin 12.5 μM. On the procedure:
CD41^+ GFP^+ and CD41^− GFP^+ cells were sorted and the actin turnover was measured in the contractile ring at the end of cytokinesis by FRAP in the dipolar mitosis or endomitosis.

The subject of experiment [2] is CD41+/CD42+ MKs. The experiment in a line: MK ploidy level by flow cytometry after addition of Blebbistatin. Particulars: added at day 6, 72 h. Type of experiment: cell-based. On the procedure: To investigate the role of myosin II in MK endomitosis, Blebbistatin was used to inhibit its […] during megakaryocytosis. Blebbistatin is added into MK culture at day 6. The ploidy level of CD41^+/CD42^+ MKs was analyzed by flow cytometry 72 h after addition of Blebbistatin.

Experiment [3] relates to H2B-GFP-expressing MKs. Nature of the experiment: Real-time video microscopy of endomitosis in H2B-GFP-expressing MKs. It is filed as cell-based. The conditions noted are these: Blebbistatin 25 μM. On the procedure: To check more precisely how myosin II inhibition affects the endomitosis process, we used real-time video microscopy to monitor endomitosis in H2B-GFP-expressing MKs treated with Blebbistatin (25 μM). Endomitotic MK treated with Blebbistatin or without Blebbistatin were filmed in 3 independent experiments.

In experiment [4] the test system is CD41+ MK. The experiment in a line: Ploidy level of CD41+ MK cultured from mouse fetal liver Lin- progenitors. It is filed as cell-based, mice. Particulars: 50 μM blebbistatin, p=0.01, n=3. The method, then: Thus, the ploidy level of CD41^+ MK was analyzed directly after dissociation the fetal liver as previously described for bone marrow MK (GILLES et al, Blood, 2009). Briefly, the hematopoietic progenitors (Lineage negative, Lin-, cells) were purified from fetal liver of E13.5 by the kit MILTENYI BIOTEC and were cultivated in serum free medium with TPO and stem cell factor (SCF). Blebbistatin was added in the culture just after the purification and ploidy level of CD41^+ cells was analyzed at day 3 of culture.

As for `Cc1ccc2c(c1)C(=O)C1(O)CCN(c3ccccc3)C1=N2` (centres unmarked) [Blebbistatin], in experiment [1] (control 55.7%±12.8, n=8, p=0.01), the “actin-GFP fluorescence recovery in the contractile ring of MKs” value was 42.9%±9.0. The “t1/2 of actin-GFP fluorescence recovery” value in experiment [1] (n=8) is 2.94 ± 1.35 s. The mean ploidy in experiment [2] (25 μM Blebbistatin, control 6.47N, n=3, p=0.015) worked out at 11.27 N; in experiment [2] (100 μM Blebbistatin, control 6.28N, n=4, p=0.008) it was 12.13 N. The “furrow ingression of MKs” value in experiment [3] is on record as “almost completely inhibited”. Also, in experiment [3], the metaphase-to-anaphase transition entry is listed as “apparently normal”. Also, the mean ploidy level is reported as 14.72 in experiment [4] (myh9−/− mice, without 10.40) and 13.40 N in experiment [4] (wt control mice, without 10.00N).
